Measurements: patent US10882856B2 (BeiGene, Ltd., priority 2017, dated 2021)
pEC50, pIC50: −log10 of the molar value.

What was measured:
IDO1 [1] = target: T1, IDO1 (Homo sapiens, UniProt P14902); assay: Hela cell-based IDO1 assay; conditions: Hela cells
Method in brief: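 HeLa cells were seeded at 8000 per well in 96-well plates in phenol red-free DMEM with 10% FBS. After 4 hours, DMSO-diluted compound dilutions were added with IFN-γ (final 100 ng/mL) and 0.4 mM L-Trp, and cells were kept 48 hours at 37 °C, 5% CO2. Supernatant was deproteinised with trichloroacetic acid, and kynurenine was measured at 480 nm after adding 2% 4-(dimethylamino)benzaldehyde. Potency came from four-parameter logistic fits in XLfit.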

[2] = target: T2, cellular TDO2 in HEK293-TDO2 cells (Homo sapiens, UniProt P48775); assay: 293-TDO2 cell-based assay (Kyn colorimetric); conditions: 48 hours of incubation
T2 construct: expressed in transfected cells; host or cells: HEK293 (ATCC), stably transfected
Method in brief: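 Kyn formed from L-Trp was read colorimetrically at 480 nm (TCA deproteinisation, then 2% 4-(dimethylamino)benzaldehyde). Compounds were added to 293-TDO2 cells 4 h post-seeding and left 48 h at 37° C. A four-parameter logistic model gave IC50 values.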

IDO1 [3] = target: T1, IDO1; assay: IDO1 enzymatic assay; format: biochemical; design: His tag (N); made in house; host or cells: E. coli; conditions: read-out: Enzyme IC50 IDO1
Method in brief: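 Recombinant N-terminally His-tagged IDO1 purified from E. coli (50 nM) was incubated with compound or DMSO and 1.3 mM D-tryptophan, 5 mM L-ascorbic acid, methylene blue and 0.4 mg/mL catalase. The buffer was 50 mM potassium phosphate pH 7.5 with 0.1% BSA, at 24 °C for 1.5 hours. N'-formylkynurenine formation was then read continuously at 321 nm for 1 hour, and activity was taken as the slope. IC50 was calculated from remaining enzyme activity across increasing compound concentrations.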

T1 sequence (P14902 whole entry): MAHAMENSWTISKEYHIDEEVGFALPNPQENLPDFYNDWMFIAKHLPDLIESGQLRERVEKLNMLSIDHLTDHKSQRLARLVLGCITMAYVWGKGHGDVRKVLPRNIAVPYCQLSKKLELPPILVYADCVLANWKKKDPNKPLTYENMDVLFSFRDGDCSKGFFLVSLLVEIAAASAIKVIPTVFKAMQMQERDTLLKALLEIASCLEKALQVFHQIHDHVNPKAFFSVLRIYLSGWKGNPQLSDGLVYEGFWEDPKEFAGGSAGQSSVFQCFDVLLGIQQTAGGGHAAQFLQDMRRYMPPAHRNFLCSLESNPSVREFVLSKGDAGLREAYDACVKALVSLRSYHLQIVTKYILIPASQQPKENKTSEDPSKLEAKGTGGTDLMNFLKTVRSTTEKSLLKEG
T2 sequence (P48775 whole entry): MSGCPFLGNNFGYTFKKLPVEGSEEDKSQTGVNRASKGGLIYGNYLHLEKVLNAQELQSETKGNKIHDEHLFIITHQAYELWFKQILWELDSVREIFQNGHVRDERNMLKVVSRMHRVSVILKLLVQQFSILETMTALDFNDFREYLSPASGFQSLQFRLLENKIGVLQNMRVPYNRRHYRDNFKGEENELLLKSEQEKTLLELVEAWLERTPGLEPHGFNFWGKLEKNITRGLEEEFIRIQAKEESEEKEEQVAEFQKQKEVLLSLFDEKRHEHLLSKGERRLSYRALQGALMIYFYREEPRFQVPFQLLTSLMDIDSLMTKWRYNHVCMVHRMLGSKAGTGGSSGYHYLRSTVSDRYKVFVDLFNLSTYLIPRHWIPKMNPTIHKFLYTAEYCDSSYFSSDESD

Compound | pEC50 (IDO1 [1]) | pEC50 [2] | pIC50 (IDO1 [3])
O[C@@H](c1c(C2CC2)ccc2cncn12)[C@H]1CC[C@H](c2cccc(Cl)c2)CC1 (single isomer, unassigned) [Example D116b] | 5.21 | < 5.00 | 5.23
O=C(O)c1ccc(N2CCC(C(O)c3c(C4CC4)ccn4cncc34)CC2)cc1 (stereo not drawn) [Example C145, 4-(4-((7-cyclopropylimidazo[1,5-a]pyridin-8-yl)(hydroxy)methyl)piperidin-1-yl)benzoic acid] | < 5.00 | < 5.00 | 7.05
OCCn1cc(-c2ccc(N3CCC(C(O)c4c(C5CC5)ccc5cncn45)CC3)cc2)cn1 (stereo not drawn) [Example D177] | 6.97 | < 5.00 | 7.60
OC(c1cc(Cl)cc2cncn12)C1CCC(c2cccc3ccccc23)CC1 (stereo not drawn) [Example E103, (7-chloroimidazo[1,5-a]pyridin-5-yl)(4-(naphthalen-1-yl)cyclohexyl)methanol] | 5.63 | < 5.00 | 7.37
OC(c1c(C2CC2)ccn2cncc12)C1CCC(c2ccnc3ccc(F)cc23)CC1 (stereo not drawn) [Example C128, (7-cyclopropylimidazo[1,5-a]pyridin-8-yl)(4-(6-fluoroquinolin-4-yl)cyclohexyl)methanol] | 7.29 | < 5.00 | 7.41
O[C@H](c1c(C2CC2)ccc2cncn12)[C@H]1CC[C@H](c2ccc(F)c(F)c2)CC1 (single isomer, unassigned) [Example D126a] | 7.51 | < 5.00 | 7.74
Nc1ccc(C2CCC(C(O)c3c(C4CC4)ccc4cncn34)CC2)cc1 (stereo not drawn) [Example D122, (4-(4-aminophenyl)cyclohexyl)(6-cyclopropylimidazo[1,5-a]pyridin-5-yl)methanol] | 6.64 | < 5.00 | 7.55
COc1cccc(C2CCC(C(O)c3c(C4CC4)ccn4cncc34)CC2)c1 (stereo not drawn) [Example C114, (7-cyclopropylimidazo[1,5-a]pyridin-8-yl)(4-(3-methoxyphenyl)cyclohexyl)methanol] | 6.71 | < 5.00 | 7.29
OC(c1c(C2CC2)ccn2cncc12)C1CCC(c2ccc3ccccc3c2)CC1 (stereo not drawn) [Example C122, (7-cyclopropylimidazo[1,5-a]pyridin-8-yl)(4-(naphthalen-2-yl)cyclohexyl)methanol] | 6.42 | < 5.00 | 7.13
O[C@H](c1c(C2CC2)ccc2cncn12)[C@H]1CC[C@@H](c2ccc(OC3CCOCC3)cc2)CC1 [Example D114d, (S)-(6-cyclopropylimidazo[1,5-a]pyridin-5-yl)((1 s,4R)-4-(4-((tetrahydro-2H-pyran-4-yl)oxy)phenyl)cyclohexyl)methanol] | 5.29 | < 5.00 | 5.85
OC(c1c(C2CC2)ccn2cncc12)C1CCC(c2cccc3ncccc23)CC1 (stereo not drawn) [Example C126, (7-cyclopropylimidazo[1,5-a]pyridin-8-yl)(4-(quinolin-5-yl)cyclohexyl)methanol] | 7.52 | < 5.00 | 7.54
COc1ccc(C2CCC(C(O)c3c(C4CC4)ccc4cncn34)CC2)cc1Cl (stereo not drawn) [Example D148, (4-(3-chloro-4-methoxyphenyl)cyclohexyl)(6-cyclopropylimidazo[1,5-a]pyridin-5-yl)methanol] | 6.73 | < 5.00 | 7.40
O[C@@H](c1c(C2CC2)ccc2cncn12)C1CCN(c2ccc(Cl)cc2)CC1 (single isomer, unassigned) [Example D174b] | 5.26 | < 5.00 | < 5.00
COc1ccc([C@H]2CC[C@H](C(O)c3c(C4CC4)ccc4cncn34)CC2)c(F)c1 (single isomer, unassigned) [Example D146b] | 5.34 | < 5.00 | 5.54
O[C@@H](c1c(C2CC2)ccc2cncn12)[C@H]1CC[C@H](c2ccc(F)cc2)CC1 (single isomer, unassigned) [Example D104b] | 5.17 | < 5.00 | 5.00
OC(c1c(C2CC2)ccc2cncn12)C1CCC(c2ccc(Oc3ccccc3)cc2)CC1 (stereo not drawn) [Example D120, (6-cyclopropylimidazo[1,5-a]pyridin-5-yl)(4-(4-phenoxyphenyl)cyclohexyl)methanol] | 6.15 | < 5.00 | 7.00
OC(c1c(C2CC2)ccc2cncn12)C1CCC(c2ccc(F)c3ccccc23)CC1 (stereo not drawn) [Example D137, (6-cyclopropylimidazo[1,5-a]pyridin-5-yl)(4-(4-fluoronaphthalen-1-yl)cyclohexyl)methanol] | 7.01 | < 5.00 | 7.21
OC(c1c(C2CC2)ccn2cncc12)C1CCC(c2cccc(F)c2)CC1 (racemic) [Example C109, (7-cyclopropylimidazo[1,5-a]pyridin-8-yl)(4-(3-fluorophenyl)cyclohexyl)methanol] | 7.00 | < 5.00 | 7.06
OC(c1c(C2CC2)ccc2cncn12)C1CCC(c2cc3ccccc3s2)CC1 (stereo not drawn) [Example D154, (4-(benzo[b]thiophen-2-yl)cyclohexyl)(6-cyclopropylimidazo[1,5-a]pyridin-5-yl)methanol] | 6.19 | < 5.00 | 7.17
O[C@@H](c1c(C2CC2)ccc2cncn12)[C@H]1CC[C@H](c2cccc(F)c2)CC1 (single isomer, unassigned) [Example D156b] | 5.16 | < 5.00 | < 5.00
COc1ccccc1C1CCC(C(O)c2c(C3CC3)ccc3cncn23)CC1 (stereo not drawn) [Example D113, (6-cyclopropylimidazo[1,5-a]pyridin-5-yl)(4-(2-methoxyphenyl)cyclohexyl)methanol] | 7.02 | < 5.00 | 7.37
O[C@@H](c1c(C2CC2)ccn2cncc12)[C@H]1CC[C@H](c2cccc(F)c2)CC1 (single isomer, unassigned) [Example C109b] | < 5.00 | < 5.00 | < 5.00
O[C@@H](c1c(C2CC2)ccc2cncn12)[C@H]1CC[C@H](c2ccc3ccccc3c2)CC1 (single isomer, unassigned) [Example D136b] | 5.14 | < 5.00 | < 5.00
N#Cc1ccc([C@H]2CC[C@H](C(O)c3c(C4CC4)ccn4cncc34)CC2)cc1 (single isomer, unassigned) [Example C106b] | < 5.00 | < 5.00 | 5.64
OC(c1c(C2CC2)ccn2cncc12)C1CCN(c2ccc(F)c3cccnc23)CC1 (stereo not drawn) [Example C155, (7-cyclopropylimidazo[1,5-a]pyridin-8-yl)(1-(5-fluoroquinolin-8-yl)piperidin-4-yl)methanol] | 6.83 | < 5.00 | 7.21
O=Cc1ccc(C2CCC(C(O)c3c(C4CC4)ccc4cncn34)CC2)cc1 (stereo not drawn) [Example D123, 4-(4-((6-cyclopropylimidazo[1,5-a]pyridin-5-yl)(hydroxy)methyl)cyclohexyl)benzaldehyde] | 6.34 | < 5.00 | 7.27
O[C@@H](c1c(C2CC2)ccc2cncn12)C1CCN(c2cccc(F)c2)CC1 [Example D172b] | 5.27 | < 5.00 | 5.57
